Test results published in the supplement of paper PMC10307832.

compound: O=c1ncccn1[C@@H]1O[C@H](CO)[C@@H](O)[C@H]1O [Zebularine] + CC(=O)Nc1cccc(-n2c(=O)n(C3CC3)c(=O)c3c(Nc4ccc(I)cc4F)n(C)c(=O)c(C)c32)c1 [Trametinib] (partner 0.02 µM); test: relative viability (nuclei count vs DMSO), 5 days (fraction); higher = more cells survive; settings: first compound 100 µM
Summary of the method: (§1)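 Nuclei were stained with Hoechst during a one-step fixation (final 0.05% Triton X-100, 1% formaldehyde, 1 ug/ml Hoechst) carried out 5 days after dosing, then counted on 4× images. The cells, lung cancer lines in 1536-well plates, had been dosed by pin tool the day after seeding with one drug alone or a fixed anchor-drug dose plus five library-drug doses (not always all listed) in √10 steps. Relative viability is the nuclei count in treated wells divided by that in vehicle wells, and each value is the median of duplicate plates.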

Cell Line	relative viability
NCI-H2170	0.441
NCI-H522	0.723
SW 900	1.15
HCC-78	0.436

compound: O=c1ncccn1[C@@H]1O[C@H](CO)[C@@H](O)[C@H]1O [Zebularine] + CCNC(=O)c1noc(-c2cc(C(C)C)c(O)cc2O)c1-c1ccc(CN2CCOCC2)cc1 [Luminespib] (partner 0.01 µM); test: as above; settings: first compound 1 µM
Summary of the method: as §1

Cell Line	relative viability
NCI-H2342	0.835
NCI-H1623	0.629
NCI-H727	0.382
NCI-H1650	0.188
NCI-H1993	0.908
SW 1573	0.181
NCI-H838	0.299
LCLC-103H	1.07
NCI-H520	0.262
NCI-H2126	1.01
EMC-BAC-2	1.27
NCI-H2085	0.625
NCI-H1666	1.01
NCI-H596	0.897
LK-2	0.17
NCI-H2087	0.19
SK-MES-1	0.656
H3255	1.04
COR-L23	0.88
COR-L 105	0.844
ChaGo-K-1	0.657
NCI-H2170	1.07
NCI-H522	0.928
SW 900	0.187
NCI-H1563	0.519
ABC-1	0.476

same assay, conditions: first compound 3.162 µM

Cell Line	relative viability
NCI-H2342	0.783
NCI-H1623	0.503
NCI-H1650	0.222
NCI-H1993	0.687
SW 1573	0.34
NCI-H838	0.312
LCLC-103H	0.996
NCI-H520	0.261
NCI-H2126	0.85
EMC-BAC-2	1.1
NCI-H2085	0.436
NCI-H1666	0.932
NCI-H596	0.914
LK-2	0.176
NCI-H2087	0.17
SK-MES-1	0.755
H3255	0.816
COR-L23	0.753
COR-L 105	0.839
ChaGo-K-1	0.508
NCI-H2170	0.942
NCI-H522	0.881
SW 900	0.21
NCI-H1563	0.517

same assay, conditions: first compound 10 µM

Cell Line	relative viability
NCI-H2342	0.621
NCI-H1623	0.592
NCI-H1650	0.176
NCI-H1993	0.749
SW 1573	0.173
NCI-H838	0.276
LCLC-103H	0.696
NCI-H520	0.186
NCI-H2126	0.889
EMC-BAC-2	0.842
NCI-H2085	0.339
NCI-H1666	0.966
NCI-H596	0.662
LK-2	0.213
NCI-H2087	0.143
SK-MES-1	0.458
H3255	0.797
COR-L23	0.332
COR-L 105	0.508
ChaGo-K-1	0.212
NCI-H2170	0.223
NCI-H522	0.99
SW 900	0.218
NCI-H1563	0.518
ABC-1	0.458

same assay, conditions: first compound 31.62 µM

Cell Line	relative viability
NCI-H2342	0.669
NCI-H1623	0.468
NCI-H727	1.01
NCI-H1650	0.234
NCI-H1993	0.815
SW 1573	0.41
NCI-H838	0.243
LCLC-103H	0.705
NCI-H520	0.246
NCI-H2126	0.795
EMC-BAC-2	1.38
NCI-H2085	0.423
NCI-H1666	1.01
NCI-H596	1.13
LK-2	0.182
NCI-H2087	0.176
SK-MES-1	0.347
H3255	0.972
COR-L23	0.439
COR-L 105	1.06
ChaGo-K-1	0.221
NCI-H2170	0.689
NCI-H522	0.776
SW 900	0.162
NCI-H1563	0.521
ABC-1	0.317

same assay, conditions: first compound 100 µM

Cell Line	relative viability
NCI-H2342	0.576
NCI-H1623	0.293
NCI-H727	0.272
NCI-H1650	0.225
NCI-H1993	0.847
SW 1573	0.285
NCI-H838	0.228
LCLC-103H	0.475
NCI-H520	0.192
NCI-H2126	0.379
EMC-BAC-2	1.35
NCI-H2085	0.277
NCI-H1666	0.751
NCI-H596	0.715
LK-2	0.176
NCI-H2087	0.141
SK-MES-1	0.251
H3255	0.909
COR-L23	0.171
COR-L 105	0.652
ChaGo-K-1	0.217
NCI-H2170	0.272
NCI-H522	0.665
SW 900	0.137
NCI-H1563	0.514
ABC-1	0.364

compound: O=c1ncccn1[C@@H]1O[C@H](CO)[C@@H](O)[C@H]1O [Zebularine] + C[C@]1(O)C[C@@H](c2nc(-c3ccc4ccc(-c5ccccc5)nc4c3)c3c(N)nccn32)C1 [Linsitinib] (partner 1 µM); test: as above; settings: first compound 1 µM
Summary of the method: as §1

Cell Line	relative viability
NCI-H727	0.3
EBC-1	1.1
NCI-H1703	0.633
NCI-H1993	0.775
SW 1573	0.762
NCI-H838	1.14
LCLC-103H	1.17
NCI-H520	0.98
NCI-H2126	0.743
EMC-BAC-2	0.899
NCI-H2085	1.18
Calu-6	1.03
HCC-366	0.764
NCI-H1666	0.748
NCI-H596	1.03
LK-2	0.52
NCI-H2087	1.11
SK-MES-1	1.15
H3255	0.979
COR-L23	0.977
COR-L 105	0.986
IA-LM	0.723
A549	0.741
HCC-78	0.53
NCI-H1299	1.09
NCI-H1563	1.21
ABC-1	0.678

same assay, conditions: first compound 3.162 µM

Cell Line	relative viability
NCI-H727	0.3
EBC-1	0.975
NCI-H1703	0.512
NCI-H1993	0.637
SW 1573	0.851
NCI-H838	1.02
LCLC-103H	1.24
NCI-H520	1.02
NCI-H2126	0.644
EMC-BAC-2	0.886
NCI-H2085	0.878
Calu-6	0.946
HCC-366	0.75
NCI-H1666	0.862
NCI-H596	1.04
LK-2	0.564
NCI-H2087	1.09
SK-MES-1	1.14
H3255	1.05
COR-L23	1.05
COR-L 105	0.956
IA-LM	0.794
A549	0.635
HCC-78	0.562
NCI-H1299	0.993
NCI-H1563	1.17
ABC-1	0.713

same assay, conditions: first compound 10 µM

Cell Line	relative viability
NCI-H727	0.286
EBC-1	0.979
NCI-H1703	0.644
SW 1573	0.533
NCI-H838	0.733
LCLC-103H	0.87
NCI-H520	0.47
NCI-H2126	0.668
EMC-BAC-2	0.637
NCI-H2085	0.76
Calu-6	0.734
HCC-366	0.428
NCI-H1666	0.675
NCI-H596	0.832
LK-2	0.371
NCI-H2087	0.501
SK-MES-1	0.78
COR-L23	0.448
COR-L 105	0.928
A549	0.304
HCC-78	0.379
NCI-H1299	0.984
NCI-H1563	1.17
ABC-1	0.572

same assay, conditions: first compound 31.62 µM

Cell Line	relative viability
NCI-H727	0.365
EBC-1	1.21
NCI-H1703	0.941
NCI-H1993	0.795
SW 1573	0.779
NCI-H838	0.751
LCLC-103H	1
NCI-H520	0.297
NCI-H2126	0.624
EMC-BAC-2	0.879
NCI-H2085	0.887
Calu-6	0.864
HCC-366	0.355
NCI-H1666	0.804
NCI-H596	1.06
LK-2	0.35
NCI-H2087	0.67
SK-MES-1	0.567
H3255	0.956
COR-L23	0.493
COR-L 105	1.22
IA-LM	0.878
A549	0.716
HCC-78	0.43
NCI-H1299	1.07
NCI-H1563	1.22
ABC-1	0.544

same assay, conditions: first compound 100 µM

Cell Line	relative viability
NCI-H727	0.203
EBC-1	0.854
NCI-H1703	0.525
NCI-H1993	0.657
SW 1573	0.406
NCI-H838	0.319
LCLC-103H	0.945
NCI-H520	0.199
NCI-H2126	0.478
EMC-BAC-2	0.839
NCI-H2085	0.428
Calu-6	0.209
HCC-366	0.0776
NCI-H1666	0.562
NCI-H596	1.01
LK-2	0.218
NCI-H2087	0.29
SK-MES-1	0.299
H3255	1
COR-L23	0.211
COR-L 105	0.939
IA-LM	0.503
A549	0.279
HCC-78	0.229
NCI-H1299	0.535
NCI-H1563	1.17
ABC-1	0.481
